According to PubChem BioAssay (NCI):
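Cells were grown in 96-well plates and exposed to each compound for 48 hours at five concentrations; endpoints were interpolated linearly between bracketing concentrations, or set to the highest concentration if not reached. Abbreviation: GI50, concentration required for 50% inhibition of growth. Definition used: TGI = concentration required for complete inhibition of growth.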

Columns and labels:
Assay in all cases: NCI-60 cell line screen, 48 h
ACHN renal = tested on: ACHN renal
COLO 205 colon = tested on: COLO 205 colon
HCT-15 colon = tested on: HCT-15 colon
HOP-92 NSCLC = tested on: HOP-92 NSCLC
MCF7 breast = tested on: MCF7 breast
OVCAR-3 ovarian = tested on: OVCAR-3 ovarian
RXF 393 renal = tested on: RXF 393 renal
SF-268 CNS = tested on: SF-268 CNS
SR leukemia = tested on: SR leukemia
U251 CNS = tested on: U251 CNS
A498 renal = tested on: A498 renal

Row | SMILES | TGI (ACHN renal) [µM] | TGI (COLO 205 colon) [µM] | TGI (HCT-15 colon) [µM] | TGI (HOP-92 NSCLC) [µM] | TGI (MCF7 breast) [µM] | TGI (OVCAR-3 ovarian) [µM] | TGI (RXF 393 renal) [µM] | TGI (SF-268 CNS) [µM] | TGI (SR leukemia) [µM] | TGI (U251 CNS) [µM] | GI50 (ACHN renal) [µM] | GI50 (COLO 205 colon) [µM] | GI50 (HCT-15 colon) [µM] | GI50 (MCF7 breast) [µM] | GI50 (OVCAR-3 ovarian) [µM] | GI50 (SF-268 CNS) [µM] | GI50 (U251 CNS) [µM] | TGI (A498 renal) [µM]
1 | COC(=O)[C@@]12CCCC(=O)[C@@H]1[C@H]1CCCC[C@H]12 | > 100 | > 100 | > 100 | > 100 | > 100 | > 100 | > 100 | > 100 | > 100 | > 100 |  |  |  |  |  |  |  | 
2 | COc1cc(S(=O)(=O)Nc2ccc(C3=NNC(c4ccccc4)C3)cc2)ccc1F (stereo unspecified) | > 100 | > 100 | > 100 |  | > 100 | > 100 |  | > 100 |  | > 100 | 35.2 | 51.4 | 49 | 22.2 | 50.3 | 65.1 | 43.5 | 
3 | CC(=O)OCC=C(CCl)CCC(Br)C(C)(C)Br (mixture of isomers) | > 10 | > 10 | > 10 |  | > 10 | > 10 | > 10 | > 10 |  | > 10 |  |  |  |  |  |  |  | > 10
4 | O=C(CNc1ccc(Cl)cc1Cl)NC1C=Cc2ccc(S(=O)(=O)Nc3ccc(Cl)cc3Cl)cc2C1=O (stereo unspecified) | > 100 | > 100 | > 100 | > 100 | > 100 | > 100 |  | > 100 | > 100 | > 100 |  |  |  |  |  |  |  | 
5 | COc1ccc(OC)c2c1C1CCC(=O)N1CN2C(C)=O (stereo unspecified) | > 100 | > 100 | > 100 | > 100 | > 100 | > 100 | > 100 | > 100 |  | > 100 |  |  |  |  |  |  |  | > 100
6 | C=CC[C@@]1(C(=O)OC)[C@H](Sc2ccccc2)C1(C)C | > 100 | > 100 | > 100 | 76.4 | 74.1 | > 100 |  | > 100 |  | > 100 |  |  |  |  |  |  |  | > 100
7 | Cc1sc2ccccc2[n+]1CCC(=O)O | > 100 | > 100 | > 100 | > 100 | > 100 | > 100 | > 100 | > 100 |  | > 100 |  |  |  |  |  |  |  | > 100
8 | Cn1cnc2c(sc3nc4ccccc4n32)c1=N | > 100 | > 100 | > 100 | > 100 | > 100 | > 100 | > 100 | > 100 |  | > 100 |  |  |  |  |  |  |  | > 100
9 | CCOC(=O)C(CS)NC(=O)CCCCCCCC(=O)NC(CS)C(=O)OCC (stereo unspecified) | > 100 | > 100 | > 100 | > 100 | > 100 | > 100 |  |  | > 100 | > 100 |  |  |  |  |  |  |  | > 100
10 | O=C(NCCCNCCNC(=O)c1cc(-c2ccccc2)nc2ccccc12)c1cc(-c2ccccc2)nc2ccccc12 | 3.3 | 3.21 | 3.23 | 6.37 | 3.15 | 3.6 |  |  | 8.73 | 3.24 |  |  |  |  |  |  |  | 4.76
11 | CC1(Cl)CC2C(CC1Sc1nnnn1-c1ccccc1)C2(C)C (stereo unspecified) | > 100 | > 100 | > 100 | > 100 |  | > 100 | > 100 | > 100 | > 100 |  |  |  |  |  |  |  |  | 
12 | O=c1oc2ccc(Cl)cc2cc1-c1cn2cc(Cl)ccc2n1 | > 100 | > 100 | > 100 | > 100 | 6.37 | > 100 | > 100 | > 100 | > 100 | > 100 |  |  |  |  |  |  |  | 
13 | NCCCCNCCCNC(=O)c1nc(-c2csc(CCN)n2)sc1Cl | > 100 | > 100 | > 100 | > 100 |  | > 100 | > 100 | > 100 | > 100 | > 100 |  |  |  |  |  |  |  | > 100
14 | COC(=O)C1(Cc2ccccc2)Cc2ccccc2C1 | > 100 | 35.8 | > 100 | 46.3 | > 100 |  |  | > 100 | > 100 | 73.5 |  |  |  |  |  |  |  | 
15 | COc1ccccc1Nc1nc(NNC(=O)Cc2ccccc2)nc(NNC(=O)c2ccncc2)n1 |  | > 10 | > 10 | > 10 | > 10 |  |  | > 10 | > 10 | > 10 |  |  |  |  |  |  |  | 
16 | COc1cc2c(cc1OC)-c1c3c(cc4c1[C@@H](C2)N(C)CC4)OCO3 |  | 32.1 | 40.8 | 32.4 | 27.3 | 44.6 | 19.2 | 38.2 |  | 48.8 |  |  |  |  |  |  |  | 16.9
17 | CC(=O)OC1[C@H]2c3cc4c(cc3CN3CCC(=C[C@@H]1O)C23)OCO4 (stereo partly specified) | > 100 | > 100 | > 100 |  |  | > 100 | > 100 | > 100 | > 100 | > 100 |  |  |  |  |  |  |  | 
18 | CC(C)CNC(=O)Cn1c(-c2ccccc2)cc2ccccc21 | > 100 | > 100 | > 100 |  | > 100 | > 100 | > 100 | > 100 | > 100 | > 100 |  |  |  |  |  |  |  | 
19 | CC(C)OP(=O)(OC(C)C)C(C(C)C)N(C)/C(F)=N/C(F)(F)F (stereo unspecified) | > 100 | > 100 | > 100 | > 100 | > 100 | > 100 | > 100 | > 100 |  | > 100 |  |  |  |  |  |  |  | > 100
20 | C[n+]1c2ccccc2c(C(=O)Nc2ccc(S(=O)(=O)N=C(N)N)cc2)c2ccccc21 | > 100 | > 100 | > 100 |  | > 100 | > 100 |  | > 100 |  | > 100 |  |  |  |  |  |  |  | > 100
21 | Clc1ccc(N=c2oc3ccccc3cc2-c2nc3ccccc3[nH]2)c(Cl)c1 | > 100 |  | > 100 | > 100 |  | > 100 | 41.7 | 89.1 | > 100 |  |  |  |  |  |  |  |  | 
22 | NNC(=S)N1CCN(C(=S)NN)CC1 | > 100 | > 100 |  | > 100 |  | > 100 |  | > 100 | > 100 | > 100 |  |  |  |  |  |  |  | > 100
